Values quoted from earlier work, collected in patent publication US20120058932A1, “ACTIVE INGREDIENT-PEPTIDE CONSTRUCT FOR EXTRACELLULAR CONCENTRATION” (MAX PLANCK-GESELLSCHAFT ZUR FORDERUNG DER WISSENSCHAFTEN …, priority 2008, published 2012).

Details: blood cells vs plasma

- Concentration in blood cells relative to the surrounding plasma: approximately 8 ×
Compound: C/C=C/C[C@@H](C)[C@@H](O)[C@H]1C(=O)N[C@@H](CC)C(=O)N(C)CC(=O)N(C)[C@@H](CC(C)C)C(=O)N[C@@H](C(C)C)C(=O)N(C)[C@@H](CC(C)C)C(=O)N[C@@H](C)C(=O)N[C@H](COCCO)C(=O)N(C)[C@@H](CC(C)C)C(=O)N(C)[C@@H](CC(C)C)C(=O)N(C)[C@@H](C(C)C)C(=O)N1C [SDZ IMM 125]
